Structures can show the parent of a compound that is named as a salt. Where two headings read alike, the source gives them in different places.
Key:
wild type BRAF kinase = wild type BRAF kinase (Homo sapiens (Human), UniProt P15056); conditions: read-out: BRAF WT Kd, class symbols
mutant BRAF kinase = mutant BRAF kinase (Homo sapiens (Human), UniProt P15056, V600E); conditions: read-out: BRAF V600E Kd, class symbols
RAF kinases = RAF kinases (Homo sapiens (Human), UniProt P04049); conditions: read-out: RAF1 Kd, class symbols
Method: (§1) The liganded beads were blocked with excess biotin and washed with blocking buffer (SeaBlock (Pierce), 1% BSA, 0.05% Tween 20, 1 mM DTT) to remove unbound ligand and to reduce non-specific binding. […] Test compounds were prepared as 100× stocks in DMSO and rapidly diluted into the aqueous environment. DMSO was added to control assays lacking a test compound. Primary screen interactions were performed in polypropylene 384-well plates in a final volume of 34 μL, while Kd determinations were performed in polystyrene 96-well plates in a final volume of 135 μL. […] The kinase concentration in the eluates was measured by quantitative PCR. Each kinase was tested individually against each compound. KdS were determined using eleven serial threefold dilutions. A selectivity score, which is a quantitative measure of selectivity of a compound against a panel of enzymes, may be calculated for a compound by dividing the number of enzymes for which a compound meets a set criteria, (for example, a binding constant of 100 nM or less), by the total number of enzymes tested. […] (Note, for those compounds tested in a larger kinase panel, as indicated by an asterisk (*) next to the S35 score, the divisor is 321 (i.e. the larger panel contains 321 distinct kinases, excluding mutant variants.)).

[1] = system: panel of 290 distinct kinases (321 in the larger panel), excluding mutant variants; conditions: kinase selectivity score, class symbols
Method: as §1

[2] = value marked * (larger kinase panel)

RAF kinases, sequence (P04049 whole entry): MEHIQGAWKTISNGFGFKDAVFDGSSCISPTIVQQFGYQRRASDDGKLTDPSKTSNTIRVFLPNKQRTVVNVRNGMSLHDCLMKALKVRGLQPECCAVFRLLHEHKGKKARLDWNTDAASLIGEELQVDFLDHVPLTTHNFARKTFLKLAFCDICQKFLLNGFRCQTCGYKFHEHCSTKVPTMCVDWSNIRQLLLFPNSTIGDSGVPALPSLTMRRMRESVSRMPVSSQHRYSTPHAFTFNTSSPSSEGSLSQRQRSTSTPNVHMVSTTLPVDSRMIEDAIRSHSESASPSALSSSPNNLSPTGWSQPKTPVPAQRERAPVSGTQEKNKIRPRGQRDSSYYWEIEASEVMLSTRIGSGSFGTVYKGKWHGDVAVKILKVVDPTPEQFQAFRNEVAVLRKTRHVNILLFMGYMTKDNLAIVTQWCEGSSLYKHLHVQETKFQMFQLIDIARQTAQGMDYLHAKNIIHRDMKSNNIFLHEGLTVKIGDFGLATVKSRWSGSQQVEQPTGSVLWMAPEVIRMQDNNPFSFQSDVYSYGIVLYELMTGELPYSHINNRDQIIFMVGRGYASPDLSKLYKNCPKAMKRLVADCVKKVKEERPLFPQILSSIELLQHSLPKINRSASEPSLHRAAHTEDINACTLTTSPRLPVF
wild type BRAF kinase, sequence (P15056 whole entry): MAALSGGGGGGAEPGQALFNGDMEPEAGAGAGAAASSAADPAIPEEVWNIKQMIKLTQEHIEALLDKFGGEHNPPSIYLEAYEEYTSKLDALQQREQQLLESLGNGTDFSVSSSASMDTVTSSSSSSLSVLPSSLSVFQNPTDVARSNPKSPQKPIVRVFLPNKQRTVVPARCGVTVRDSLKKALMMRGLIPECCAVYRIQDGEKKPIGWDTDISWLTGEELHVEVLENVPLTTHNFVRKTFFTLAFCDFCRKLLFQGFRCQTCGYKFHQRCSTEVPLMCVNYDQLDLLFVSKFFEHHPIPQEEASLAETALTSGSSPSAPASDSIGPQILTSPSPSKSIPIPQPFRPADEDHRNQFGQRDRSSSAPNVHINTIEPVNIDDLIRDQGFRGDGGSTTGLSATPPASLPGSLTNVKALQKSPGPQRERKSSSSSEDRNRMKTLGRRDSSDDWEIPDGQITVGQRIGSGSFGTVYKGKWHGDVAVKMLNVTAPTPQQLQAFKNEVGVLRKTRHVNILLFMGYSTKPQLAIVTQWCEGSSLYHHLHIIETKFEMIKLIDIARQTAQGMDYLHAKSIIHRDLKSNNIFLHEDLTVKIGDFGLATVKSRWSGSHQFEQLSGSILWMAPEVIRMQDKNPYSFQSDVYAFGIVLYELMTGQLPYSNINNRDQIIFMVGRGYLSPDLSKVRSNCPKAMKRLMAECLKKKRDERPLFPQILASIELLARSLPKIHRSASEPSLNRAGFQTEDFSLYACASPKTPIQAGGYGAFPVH
mutant BRAF kinase, sequence (P15056 whole entry V600E): as the sequence (P15056 whole entry) above, with V600E counted along it

Structure (SMILES) | Kd (wild type BRAF kinase) | Kd (mutant BRAF kinase) | Kd (RAF kinases) | S35 [1, 2] | S35 ([1]; 290 distinct kinases)
COc1ccc(NC(=O)Nc2cccc(Oc3ncnc4cc(OC)c(OC)cc34)c2)cc1Cl [Ex 180, 1-(3-chloro-4-methoxyphenyl)-3-(3-(6,7-dimethoxyquinazolin-4-yloxy)phenyl)urea] | < 250 nM | < 250 nM | < 250 nM | B* (0.10 < B ≦ 0.20) | 
COc1cc2ncnc(Oc3cccc(NC(=O)Nc4cc(C(C)C)on4)c3)c2cc1OC [Ex 133, 1-(3-(6,7-dimethoxyquinazolin-4-yloxy)phenyl)-3-(5-isopropylisoxazol-3-yl)urea] | < 250 nM | < 250 nM | < 250 nM | C* (0.20 < C ≦ 0.40) | 
COc1cc2ncnc(Sc3cccc(NC(=O)Nc4cc(C(C)(C)C)on4)c3)c2cc1OCCN1CCS(=O)(=O)CC1 [Ex 71, 1-(5-tert-butyl-isoxazol-3-yl)-3-(3-{6-[2-(1,1-dioxo-thiomorpholin-4-yl)-ethoxy]-7-methoxy-quinazolin-4-ylsulfanyl}-phenyl)-urea] | < 250 nM | < 250 nM | < 250 nM |  | C (0.20 < C ≦ 0.40)
COc1cc2ncnc(Oc3cccc(NC(=O)Nc4cccc(C(F)(F)F)c4)c3)c2cc1OC [Ex 181, 1-(3-(6,7-dimethoxyquinazolin-4-yloxy)phenyl)-3-(3-(trifluoromethyl)phenyl)urea] | < 250 nM | < 250 nM | < 250 nM | C* (0.20 < C ≦ 0.40) | 
COc1cc2ncnc(Sc3cccc(NC(=O)Nc4cc(C(C)(C)C)nn4-c4ccccc4)c3)c2cc1OC [Ex 154, 1-(3-tert-butyl-1-phenyl-1H-pyrazol-5-yl)-3-(3-(6,7-dimethoxyquinazolin-4-ylthio)phenyl)urea] | > 1000 nM | > 1000 nM | > 1000 nM | D* (D > 0.40) | 
COc1cc2ncnc(Sc3cccc(NC(=O)Nc4cc(C(C)(C)C)on4)c3)c2cc1OCCS(C)(=O)=O [Ex 88, 1-(5-tert-butylisoxazol-3-yl)-3-(3-(7-methoxy-6-(2-(methylsulfonyl)ethoxy)quinazolin-4-ylthio)phenyl)urea] | < 250 nM | < 250 nM | < 250 nM |  | C (0.20 < C ≦ 0.40)
COCCOc1cc2ncnc(Oc3cccc(NC(=O)Nc4ccc(OC)c(C(F)(F)F)c4)c3)c2cc1OC [Ex 139, 1-(4-methoxy-3-(trifluoromethyl)phenyl)-3-(3-(6-methoxy-7-(2-methoxyethoxy)quinazolin-4-yloxy)phenyl)urea] | < 250 nM | < 250 nM | < 250 nM | C* (0.20 < C ≦ 0.40) | 
COc1cc2c(Oc3cccc(NC(=O)Nc4cc(C(C)(C)C)on4)c3)ncnc2cc1OC[C@H](O)CN1CCN(C)CC1 [Ex 100, (R)-1-(5-tert-butylisoxazol-3-yl)-3-(3-(7-(2-hydroxy-3-(4-methylpiperazin-1-yl)propoxy)-6-methoxyquinazolin-4-yloxy)phenyl)urea] | < 250 nM | < 250 nM | < 250 nM |  | D (D > 0.40)
COc1cc2ncnc(Oc3cccc(NC(=O)Nc4cc(C5(C)CC5)on4)c3)c2cc1OC [Ex 127, 1-(3-(6,7-dimethoxyquinazolin-4-yloxy)phenyl)-3-(5-(1-methylcyclopropyl)isoxazol-3-yl)urea] | < 250 nM | < 250 nM | < 250 nM |  | C (0.20 < C ≦ 0.40)
COc1cc2c(Oc3cccc(NC(=O)Nc4cc(C(C)(C)C)on4)c3)ncnc2cc1O[C@H]1CCN(CC(F)(F)F)C1 [Ex 104, (S)-1-(5-tert-butylisoxazol-3-yl)-3-(3-{6-methoxy-7-[1-(2,2,2-trifluoroethyl)pyrrolidin-3-yloxy]quinazolin-4-yloxy}phenyl)urea] | > 1000 nM | > 1000 nM | > 1000 nM | B* (0.10 < B ≦ 0.20) | 
COc1cc2ncnc(Oc3cccc(NC(=O)Nc4cc(C5CCCC5)on4)c3)c2cc1OC [Ex 135, 1-(5-cyclopentylisoxazol-3-yl)-3-(3-(6,7-dimethoxyquinazolin-4-yloxy)phenyl)urea] | < 250 nM | < 250 nM | < 250 nM | C* (0.20 < C ≦ 0.40) | 
COc1cc2ncnc(Oc3cccc(NC(=O)Nc4cc(C5CC5)no4)c3)c2cc1OC [Ex 124, 1-(3-cyclopropylisoxazol-5-yl)-3-(3-(6,7-dimethoxyquinazolin-4-yloxy)phenyl)urea] | < 250 nM | < 250 nM | < 250 nM |  | C (0.20 < C ≦ 0.40)
COc1cc2ncnc(Oc3cccc(NC(=O)Nc4cc(C(C)(CF)CF)nn4-c4ccccc4)c3)c2cc1OC [Ex 167, 1-[3-(1,3-difluoro-2-methylpropan-2-yl)-1-phenyl-1H-pyrazol-5-yl]-3-[3-(6,7-dimethoxyquinazolin-4-yloxy)phenyl]urea] | > 1000 nM | > 1000 nM | > 1000 nM | D* (D > 0.40) | 
COc1cc2ncnc(Oc3cccc(NC(=O)Nc4cc(C(C)C)no4)c3)c2cc1OC [Ex 122, 1-(3-(6,7-dimethoxyquinazolin-4-yloxy)phenyl)-3-(3-isopropylisoxazol-5-yl)urea] | < 250 nM | < 250 nM | < 250 nM |  | C (0.20 < C ≦ 0.40)
COc1cc2ncnc(Sc3cccc(NC(=O)Nc4cc(C(C)(C)C)on4)c3)c2cc1OCCCS(C)(=O)=O [Ex 64, 1-(5-tert-butylisoxazol-3-yl)-3-(3-(7-methoxy-6-(3-(methylsulfonyl)propoxy)quinazolin-4-ylthio)phenyl)urea] | < 250 nM | < 250 nM | < 250 nM |  | C (0.20 < C ≦ 0.40)
COc1cc2ncnc(Oc3cccc(NC(=O)Nc4cc(C(F)(F)F)nn4-c4ccc(C)cc4)c3)c2cc1OC [Ex 172, 1-[3-(6,7-dimethoxyquinazolin-4-yloxy)phenyl]-3-[1-p-tolyl-3-(trifluoromethyl)-1H-pyrazol-5-yl]urea] | > 1000 nM |  | > 1000 nM | C* (0.20 < C ≦ 0.40) | 
CCOC(=O)Cn1nc(C(C)(C)C)cc1NC(=O)Nc1cccc(Oc2ncnc3cc(OC)c(OC)cc23)c1 [Ex 166, ethyl 2-(3-tert-butyl-5-{3-[3-(6,7-dimethoxyquinazolin-4-yloxy)phenyl]ureido}-1H-pyrazol-1-yl)acetate] | > 1000 nM |  | > 1000 nM | C* (0.20 < C ≦ 0.40) | 
COc1cc2ncnc(Oc3cccc(NC(=O)Nc4cc(C(F)(F)F)nn4-c4ccccc4)c3)c2cc1OC [Ex 161, 1-[3-(6,7-dimethoxyquinazolin-4-yloxy)phenyl]-3-[1-phenyl-3-(trifluoromethyl)-1H-pyrazol-5-yl]urea] | > 1000 nM |  | > 1000 nM | C* (0.20 < C ≦ 0.40) | 
COc1cc2ncnc(Oc3cccc(NC(=O)Nc4cc(C5(C(F)(F)F)CCC5)no4)c3)c2cc1OC [Ex 155, 1-(3-(6,7-dimethoxyquinazolin-4-yloxy)phenyl)-3-(3-(1-(trifluoromethyl)cyclobutyl)isoxazol-5-yl)urea] | > 1000 nM |  | > 1000 nM | C* (0.20 < C ≦ 0.40) | 
CC(C)(C)c1cc(NC(=O)Nc2cccc(Sc3ncnc4cc5c(cc34)OCCO5)c2)no1 [Ex 54, 1-(5-tert-butylisoxazol-3-yl)-3-[3-(7,8-dihydro-[1,4]dioxino[2,3-g]quinazolin-4-ylthio)phenyl]urea hydrochloride] | > 1000 nM |  | > 1000 nM |  | C (0.20 < C ≦ 0.40)
COCC(C)(C)c1cc(NC(=O)Nc2cccc(Oc3ncnc4cc(OC)c(OC)cc34)c2)no1 [Ex 130, 1-(3-(6,7-dimethoxyquinazolin-4-yloxy)phenyl)-3-(5-(1-methoxy-2-methylpropan-2-yl)isoxazol-3-yl)urea] | > 1000 nM |  | > 1000 nM |  | C (0.20 < C ≦ 0.40)
COc1cc2ncnc(Oc3cc(NC(=O)Nc4cc(C(C)(C)C)on4)ccc3Cl)c2cc1OC [Ex 10, 1-(5-tert-butylisoxazol-3-yl)-3-(4-chloro-3-(6,7-dimethoxyquinazolin-4-yloxy)phenyl)urea] | > 1000 nM |  | > 1000 nM |  | C (0.20 < C ≦ 0.40)
COc1cc2ncnc(Oc3cccc(NC(=O)Nc4cc(C(C)(C)C)nn4-c4ccccc4)c3)c2cc1OC [Ex 153, 1-(3-tert-butyl-1-phenyl-1H-pyrazol-5-yl)-3-(3-(6,7-dimethoxyquinazolin-4-yloxy)phenyl)urea] | > 1000 nM |  | > 1000 nM | D* (D > 0.40) | 
CCOC(=O)Cn1nc(C(C)(C)C)cc1NC(=O)Nc1cccc(Sc2ncnc3cc(OC)c(OC)cc23)c1 [Ex 195, ethyl 2-(3-tert-butyl-5-{3-[3-(6,7-dimethoxyquinazolin-4-ylthio)phenyl]ureido}-1H-pyrazol-1-yl)acetate] | > 1000 nM |  | > 1000 nM | C* (0.20 < C ≦ 0.40) | 
COc1cc2ncnc(Oc3cccc(NC(=O)Nc4cc(C(F)(F)F)nn4-c4ccc(F)cc4)c3)c2cc1OC [Ex 171, 1-[3-(6,7-dimethoxyquinazolin-4-yloxy)phenyl]-3-[1-(4-fluorophenyl)-3-(trifluoromethyl)-1H-pyrazol-5-yl]urea] | > 1000 nM |  | > 1000 nM | C* (0.20 < C ≦ 0.40) | 
CCOc1cc2ncnc(Sc3cccc(NC(=O)Nc4cc(C(C)(C)C)on4)c3)c2cc1OCC [Ex 51, 1-(5-tert-butylisoxazol-3-yl)-3-[3-(6,7-diethoxyquinazolin-4-ylthio)phenyl]urea] | > 1000 nM |  | > 1000 nM |  | C (0.20 < C ≦ 0.40)
COc1cc2ncnc(Oc3cccc(NC(=O)Nc4ccccc4)c3)c2cc1OC [Ex 182, 1-(3-(6,7-dimethoxyquinazolin-4-yloxy)phenyl)-3-phenylurea] | > 1000 nM | > 1000 nM | > 1000 nM |  | 
